Test results from patent publication US12286439B2, “Inhibitors of ERK nuclear translocation” (Yeda Research and Development Co. Ltd., priority 2018, dated 2025).

Assays:
Assay type in all cases: cell-based
A2185 and A2352 cells = assay: Viability assay (methylene blue), two BRAF melanoma cells; conditions: for cell viability (percentage of DMSO control) / viability at 10 µM: active below 40%, moderate below 80%, not active above 80%; for activity in SAR summary of FIGS. 10A-10C (cell viability): comparison with Compound Z2 or named analog; for cell viability at lower concentration: 3 μM; for viability at 10 µM: read-out: cell viability (percentage of DMSO control); for cell viability, dose response: 0.1-10 μM
Procedure: FIGS. 10A, 10B and 10C present data from screening the 20 analogs of Compound Z2 (“C-compounds”) showing three particularly active anti-proliferative compounds. […] A2185 and A2352 cells were grown in 1% FCS containing DMSO (0.1%), EPE peptide, Compound Z56, Compound Z2 or C-compounds (10 μM), for 72 hours. Compounds were categorized according to activity: (1) active, below 40%; (2) moderate activity, below 80%; (3) not active, above 80%. […] A2185 and A2352 cells were grown in 1% FCS containing DMSO (0.1%), EPE peptide (10 μM), compounds Z56, Z2 or selected C-compounds (3 μM), for 72 hours. Empty squares/circles represent individual data points of proliferation. Full squares/circles indicate average proliferation of 2 independent experiments in triplicate±SE. Bold horizontal line defines arbitrary activity threshold of activity below 40%. FIG. 10C presents dose response curves of active C-compounds compounds. A2185 and A2352 were grown in 1% FCS media containing DMSO (0.1%), EPE peptide, Z56, Z2 (10 μM) or compounds C17, C22 and C23 (0.1-10 μM), for 72 hours. […] Cell viability was measured by staining with methylene blue. Data presented as percentage of DMSO control. Bar graphs represent average of 2 independent experiments done in triplicates ±SE.
FIG. 13 presents a graph showing the effect of analogs of Compound C17 (“D-compounds”) on cell viability at a concentration of 10 μM. A2185 and A2352 cells were grown in 1% FCS media containing DMSO (0.1%) EPE peptide (10 μM), Compounds Z56, Z2, C17 (10 μM) as controls, and D-Compounds (10 μM), for 72 hours. Viable cells were measured by staining with methylene blue. Bar graphs represent average of 2 independent experiments done in triplicates. Data presented as percentage of DMSO proliferation ±standard error.
FIG. 14 presents a graph showing the effect of analogs of Compound C17 (“D-compounds”) on cell viability at a concentration of 1 μM. A2185 and A2352 cells were grown in 1% FCS media containing DMSO (0.1%), EPE peptide (10 μM), Compounds Z56, Z2 and C17 (1 and 10 μM) as controls, and D-compounds (1 μM), for 72 hours. Viable cells were measured by staining with methylene blue. Bar graphs represent average of 2 independent experiments done in triplicates. Data presented as percentage of DMSO proliferation ±standard error.
(§1) Cells were seeded at low confluence into 24, 48 or 96-well plates in complete medium. After 24 hours, medium was replaced by 1% FCS (fetal calf serum) containing appropriate treatments. Fresh medium containing the same agents was replaced every day. After 72 or 96 hours of treatment, cells were fixed with 4% formaldehyde overnight at 23° C., washed once with 0.1 M borate buffer (pH 8.5) for 10 minutes, and stained with of 1% methylene blue in 0.1 M borate buffer (pH 8.5) for 30 minutes. Excess stain was washed out with distilled water. Color was extracted by adding 0.1 M HCl (3 hours, 23° C.), and absorbance measured at 595 nm in an ELISA reader. For time course experiments, attached cells were fixed and measured at 0, 24, 48, 72 and 96 hours. For dose-response experiments, cells were treated with indicated concentrations of reagent, fixed and stained after 72 hours as above.
The ability of the selected compounds to reduce cell viability of two BRAF melanoma cells (A2185 and A2352) was evaluated. Initially, all compounds were assayed at a relatively high concentration of 10 μM.

[1] = tested on: ERK1/2 nuclear translocation; assay: Determination of ERK1/2 localization by fluorescence microscopy after TPA stimulation; conditions: 10 μM, 2 hours; TPA 100 nM, 15 minutes; A2185 and A2352 cells
Procedure: Determination of Protein Localization by Fluorescence Microscopy:
Indicated cells were seeded on coverslips (coated with 0.001% w/v poly-L-lysine or not, depending on the cell line) at 50% confluency. After the indicated treatment, cells were fixed in 4% paraformaldehyde/PBS for 20 minutes on an ice surface, permeabilized with 0.1% Triton X-100/PBS for 5 minutes at 23° C., then blocked in 2% BSA/PBS for 30 minutes at 23° C. The fixed cells were sequentially incubated with appropriate antibodies (in 2% BSA/PBS, 1.5 hour), washed 3 times with PBS^−/−, and followed by incubation with either Cy-2-conjugated or rhodamine-conjugated secondary antibodies (1:200) and with DAPI ([…]; 1:100) in 2% BSA/PBS for 45 minutes. Slides were analyzed and photographed by a fluorescence microscope (Olympus BX51, ×40). Background correction, and contrast adjustment of raw data images were performed using Photoshop (Adobe, CA, USA).
The effect of Z56 was compared with that of the inhibitory effect of EPE peptide on nuclear translocation of ERK1/2.
The effects of the compounds on ERK1/2 nuclear translocation were evaluated in three cell lines (HeLa cells and two melanoma cell lines, A2185 and A2352), by treating the cells with each compound for two hours, and determining nuclear translocation using fluorescent anti-ERK antibodies, according to procedures described hereinabove.

[2] = tested on: Panc-1, AsPC-1, CFPAC-1, MIA PaCa-2, Capan-1, Capan-2 and BxPC-3 pancreatic cancer cells; assay: Viability assay (methylene blue), pancreatic cancer cell lines
Procedure: FIGS. 6A and 6B present data showing that Compound Z56 prevents proliferation of pancreatic cancer cells. […] Panc-1, AsPC-1, CFPAC-1, Mia PaCa-2, Capan-1, Capan-2 (Ras-transformed) and BxPC-3 (Ras-wild type) pancreatic cancer cells were treated with either EPE peptide (10 μM; middle bars) or Z56 (3 μM; right bars) or DMSO control (0.1%; left bars) in 1% FCS for 72 hours. […] Panc-1, AsPC-1, BxPC-3 and Mia PaCa-2 cells grown in 1% FCS medium containing either EPE peptide (10 μM), 56 (3 μM), PLX4032 (1 μM), PD184352 (5 μM) or DMSO control (0.1%). The graphs present the kinetics of cell proliferation at the indicated times after the treatment started. Quantification of all viable cells was done by methylene blue and repeated 3 times in triplicates. All results presented as a fold change of the initial cell number and represent averages ±SE.
as §1
Activating mutations in Ras are found in more than 95% of pancreatic cancers where signaling through both Raf and Akt pathway drives cancer progression [Campbell et al., Cancer Res 2007, 67:2098-2106]. However, no effective treatments that target this mutant protein have reached the clinic to date, and pancreatic ductal adenocarcinoma remains an almost universally fatal disease [Bryant et al., Trends Biochem Sci 2014, 39:91-100]. Therefore, treating these pancreatic cancer cells downstream of Ras, without overactivating the Akt pathway, should be at least partially beneficial. The effect of Compound Z56 (and EPE peptide) on cell viability of Ras-transformed (and Ras-wild type) pancreatic cancer cells was determined, using a variety of cell lines.
The effects of Compound Z56 on the viability of pancreatic cancer cell lines at various times after treatment was compared with those of PLX4032 (a B-Raf inhibitor) and PD184352 (a MEK1/2 inhibitor).

Structure (SMILES)	cell viability (percentage of DMSO control) (A2185 and A2352 cells; 10 μM, 72 hours, 1% FCS)	activity in SAR summary of FIGS. 10A-10C (cell viability) (A2185 and A2352 cells)	other results
O=S1(=O)C=CC2ON=C(c3cc(Cl)cc(Cl)c3)C21 (stereo not drawn) [Compound C6]	did not exhibit significant activity	inactive	
O=S1(=O)C=CC2ON=C(c3c(Cl)cccc3Cl)C21 (stereo not drawn) [Compound C23]			nuclear accumulation of ERK1/2 upon TPA stimulation [1]: inhibited; cell viability at lower concentration (A2185 and A2352 cells; 72 hours, 1% FCS): at least as potent as Compound Z2; viability at 10 µM (A2185 and A2352 cells; 10 μM, 72 hours, 1% FCS): < 40%; cell viability, dose response (A2185 and A2352 cells; 72 hours, 1% FCS): dose dependent manner
O=S1(=O)C=CC2ON=C(c3cccnc3)C21 (stereo not drawn) [Compound D13]			anti-viability activity (A2185 and A2352 cells; 10 μM, 72 hours, 1% FCS): higher activity than did Compound D7
CCCS(=O)(=O)Nc1ccc(F)c(C(=O)c2c[nH]c3ncc(-c4ccc(Cl)cc4)cc23)c1F [PLX4032]			proliferation, time course ([2]; 1 μM, Ras-mutated AsPC-1 cells): to some extent; viability, time course ([2]; 1 μM, other Ras-transformed pancreatic cancer cells (Panc-1, Mia PaCa-2)): not affecting the viability
O=C(CCc1ccccc1)OC1C=CS(=O)(=O)C1 (stereo not drawn) [Compound C3]			viability at 10 µM (A2185 and A2352 cells; 10 μM, 72 hours, 1% FCS): < 80%
O=C(OC1CCS(=O)(=O)C1)c1ccnc(OCc2ccccc2)c1 (stereo not drawn) [Compound C16]	did not exhibit significant activity		
O=C(OC1CS(=O)(=O)CC1Br)c1ccccc1 (stereo not drawn) [Compound C22]		far more active than Compound C6	nuclear accumulation of ERK1/2 upon TPA stimulation [1]: inhibited; cell viability at lower concentration (A2185 and A2352 cells; 72 hours, 1% FCS): at least as potent as Compound Z2; viability at 10 µM (A2185 and A2352 cells; 10 μM, 72 hours, 1% FCS): < 40%; cell viability, dose response (A2185 and A2352 cells; 72 hours, 1% FCS): dose dependent manner
O=C(NOCC1CC1)c1ccc(F)c(F)c1Nc1ccc(I)cc1Cl [PD184352]			viability, time course ([2]; 5 μM, all tested cell lines (Panc-1, AsPC-1, BxPC-3, Mia PaCa-2)): reduced the viability
Cc1ccccc1OC1CCS(=O)(=O)C1 (stereo not drawn) [Compound C20]	did not exhibit significant activity	lower activity (relative to Compound Z2)	
O=C(Nc1ccccc1)OC1C=CS(=O)(=O)C1 (stereo not drawn) [Compound C12]	did not exhibit significant activity	less active	
O=S1(=O)CCC(OCc2ccccc2)C1 (stereo not drawn) [Compound C8]	did not exhibit significant activity	less active	
O=C(OC1CCCS(=O)(=O)C1)c1ccccc1F (stereo not drawn) [Compound C31]	did not exhibit significant activity	inactive	
CS(=O)(=O)CCOC(=O)c1cccc(Br)c1 [Compound C19]	did not exhibit significant activity	inactive	
Cc1ccc(C(=O)OC2CCS(=O)(=O)C2)cc1 (stereo not drawn) [Compound C11]	did not exhibit significant activity	inactive	
O=C(NC1C=CS(=O)(=O)C1)c1ccccc1 (stereo not drawn) [Compound C2]		less active	viability at 10 µM (A2185 and A2352 cells; 10 μM, 72 hours, 1% FCS): < 80%
Cn1ccc2c(C(=O)OC3CCS(=O)(=O)C3)cccc21 (stereo not drawn) [Compound C32]	did not exhibit significant activity		
Cc1ccc(OC2CCS(=O)(=O)C2)cc1 (stereo not drawn) [Compound C21]	did not exhibit significant activity	lower activity (relative to Compound Z2)	
CCOC(=O)c1ccc(NC2C=CS(=O)(=O)C2)cc1 (stereo not drawn) [Compound C1]		lower activity (relative to Compound Z2)	viability at 10 µM (A2185 and A2352 cells; 10 μM, 72 hours, 1% FCS): < 40%
CC(C)OC(=O)c1ccc(NC(=O)CC2C=CS(=O)(=O)C2)cc1 (stereo not drawn) [Compound C14]	did not exhibit significant activity	lower activity (relative to Compound Z2)	
O=S1(=O)C=CC(O)C1 (stereo not drawn) [Compound C4]	did not exhibit significant activity		
O=S1(=O)CCC(Oc2ccccc2)C1 (stereo not drawn) [Compound C5]			viability at 10 µM (A2185 and A2352 cells; 10 μM, 72 hours, 1% FCS): < 80%
O=C(OC1CCCS(=O)(=O)C1)c1ccc(F)cc1 (stereo not drawn) [Compound C15]	did not exhibit significant activity	inactive	
